# Activity calls are given as the source filed them. No rule for the calls is given here.
# Biological target: RanGTP-importin-beta complex (human Ran / KPNB1)
# Assay: Ran–importin-beta interaction inhibitors, confirmation, biochemical, FRET, CFP/YFP, cell-free homogeneous (AID 2823)
# Conditions: CFP-Ran/YFP-importin-beta FRET ratio
row,SMILES,IC50
1,CC(C)(C)c1ccc(S(=O)(=O)NCC(=O)N2CCN(C(=O)c3ccco3)CC2)cc1,> 50 µM (inactive)
2,CCN(CC)S(=O)(=O)c1ccc(NC(=O)c2ccc(Sc3nncn3C)c([N+](=O)[O-])c2)cc1,> 50 µM (inactive)
3,Cc1ccc(Cl)cc1N1C(=O)CC(Sc2ncccn2)C1=O (configuration not stated),> 50 µM (inactive)
4,Cc1c(O)ccc2c3c(c(=O)oc12)CCC(C)C3 (configuration not stated),11.9 µM
5,Cc1cccc(C)c1N1CCN(S(=O)(=O)c2ccc(F)cc2)CC1,> 50 µM (inactive)
6,CCOc1ccc(C2C(C(=O)OC)=CN(CCOC)C=C2C(=O)OC)cc1,13.1 µM
7,Cc1cc(C)c(C2=CC(c3ccccc3)n3ncnc3N2)cc1C (configuration not stated),38.5 µM
8,CCc1ccc(-c2nc(CSCC(=O)N3CCN(c4ccccn4)CC3)c(C)o2)cc1,> 50 µM (inactive)
9,COc1ccc(OCC(=O)NNc2c3ccccc3nc3ccccc23)cc1,> 50 µM (inactive)
10,NC(=S)Cc1nc(-c2ccc(Cl)cc2)cs1,> 50 µM (inactive)
11,COc1ccc(-c2nc(NC(=O)c3n[nH]c(=O)c4ccccc34)sc2C)cc1,> 50 µM (inactive)
12,NC(=O)N/N=C/c1ccccc1OC(=O)c1cc2ccccc2oc1=O,> 50 µM (inactive)
13,COCCn1c(N)c(C(=O)OCc2ccccc2)c2nc3ccccc3nc21,46.2 µM
14,CN1CCN(c2cc(=O)n(-c3ccc(Cl)cc3)c(=O)[nH]2)CC1,> 50 µM (inactive)
15,COC(=O)c1cccnc1NC(=S)NNC(=O)c1ccccc1,> 50 µM (inactive)
16,CCCn1c(O)c(C=Nc2ccccc2)sc1=S,39.4 µM
17,CCCCOc1ccc(OCCSc2nc3ccccc3n2CC(=O)O)cc1,> 50 µM (inactive)
18,CCCc1noc(-c2cccc([N+](=O)[O-])c2)n1,> 50 µM (inactive)
19,CC1CC(C)CN(c2cc(=O)n(Cc3ccc(F)cc3)c(=O)[nH]2)C1 (configuration not stated),> 50 µM (inactive)
20,Cc1cc(C)c(S(=O)(=O)N(C)CC(N)=O)c(C)c1,> 50 µM (inactive)
21,CCN1CCC2(CC1)C(C#N)=C(N)Oc1c2sc2nc(C)cc(C)c12,> 50 µM (inactive)

row,SMILES,IC50
1,CC(=O)O/N=C/c1c(Cl)n(C)c2ccccc12,> 50 µM (inactive)
2,COc1cc2c(cc1OC)CN(Cc1ccccc1)CC2,> 50 µM (inactive)
3,O=[N+]([O-])c1ccc(Nc2c3ccccc3nc3ccccc23)cc1,> 50 µM (inactive)
4,CCN(CC)S(=O)(=O)c1cc(C(=O)Nc2ccccc2[N+](=O)[O-])ccc1Cl,> 50 µM (inactive)
5,O=c1cc(N2CCC(Cc3ccccc3)CC2)[nH]c(=O)n1C1CCCCC1,> 50 µM (inactive)
6,CC(=O)c1ccc(-c2cccs2)s1,34.7 µM
7,COc1cc(OC)cc(C(=O)NCCNc2nc3cc(C)cc(C)c3cc2C#N)c1,8.59 µM
8,COc1ccc(/C=N/NC(=O)c2sc3nc(C)cc(C)c3c2N)cc1,21 µM
9,Cc1ccc2cc(C#N)c(N3CCCN(S(=O)(=O)c4ccc(F)cc4)CC3)nc2c1,31.6 µM
10,CCOC(=O)C1(CCc2ccccc2)CCN(Cc2ccccn2)CC1,> 50 µM (inactive)
11,COCCN1C=C(C(=O)OC)C(c2cc(Br)c(OC)c(OC)c2)C(C(=O)OC)=C1,21.4 µM
12,CCCCc1cc(=O)oc2c(CN3CCCC3)c(O)c(Cl)cc12,23 µM
13,COCCOC(=O)C1=C(C)OC(N)=C(C(=O)OC)C12C(=O)Nc1ccccc12 (configuration not stated),> 50 µM (inactive)
14,Cc1ccc(Nc2nc(N)nc(CC#N)n2)cc1,> 50 µM (inactive)
15,CCOC(=O)CSc1nnc(CSc2nc3sc4c(c3c(=O)[nH]2)CCCC4)n1-c1ccccc1,> 50 µM (inactive)
16,COc1ccccc1NC(=O)c1cc2ccccc2nc1C,> 50 µM (inactive)
17,COc1cc(/C=N/NC(=O)c2cc(C)oc2C)ccc1O,> 50 µM (inactive)
18,CCOC(=O)CNC(=O)C1CCCN(c2ncccn2)C1 (configuration not stated),> 50 µM (inactive)
19,CCOCCCNC(=S)NCCNc1nc2c(C)cccc2cc1C#N,36.1 µM
20,COc1ccc(CCNC(=O)c2cc3c(=O)n4ccccc4nc3n(C3CCCCC3)c2=N)cc1OC,23.2 µM
21,CN(C)c1nc(-c2ccccc2)cc(C(F)(F)F)c1C#N,10.7 µM
